Assay results: patent publication US12564641B2 (EISAI R&D MANAGEMENT CO., LTD., priority 2019, dated 2026)
Like-named read-outs stand apart in the source and are kept apart here.

Columns and labels:
human NSCLC PDX LC-F-25 = assay: Human NSCLC PDX model LC-F-25; type: in vivo, mouse
Description: Statistical analysis: Statistical analysis was performed for each measurement by a Mann-Whitney non-parametric comparison test. Each treated group was compared with the control group.

H226 cells = assay: In vitro cytotoxicity analysis (Crystal Violet), H226; type: cell-based; conditions: Homo sapiens
Description: (§1) Plates were read at 570 nm. Data was analyzed using GraphPad Prism 6.

[1] = system: human mesothelioma HAY xenograft
Description: Female CD-1 IGS mice (Charles River, 7-9 weeks old) were used for the maximum tolerated dose (MTD) study, female NOD.CB17-SCID mice (Jackson Laboratory) were used for the NCI-H2110 and HAY xenograft studies, and female NCr nude mice (Taconic, 5 weeks old) were used for the NCI-N87 xenograft studies. Upon arrival, animals were acclimated for 5-7 days prior to inoculation.
Cryopreserved NCI-H2110, NCI-N87, or HAY cells from frozen stocks were cultured in medium containing necessary supplements.
Mice were injected subcutaneously with 100 μL/mouse of cell mixture and monitored for body weight and tumor growth.
Mice were randomized to five mice per group once tumor implants reached an average volume of 100 mm^3. Treatment was given intravenously at a volume of 200 μL. Terminal body weight was measured and recorded at the end of each study.
Comparison of tumor growth within each experimental group was also performed using the same statistical analysis.

human NSCLC PDX LXFA-586 = assay: Human NSCLC PDX model LXFA-586
From the text: Animals: Female NMRI nu/nu mice, 4 to 6 weeks of age.
Xenotransplantation: LXFA-586 established growing tumor (T2N1M0) from a primary non-small cell lung adenocarcinoma human patient.
Experimental procedure: Animals were monitored until the tumor implants reached the study volume criteria of 50-250 mm^3 (e.g., 80-200 mmi) in a sufficient number of animals. […] The process of the assignment to groups (enrollment, stratified randomization) may also be referred to as randomization. The day of randomization was designated as day 0 of the experiment.
(§2) Tumors were measured and mice were weighed twice a week during the experimental period. The first day of dosing was day 1, one day after randomization (day 0).

OVCAR3 cells = assay: In vitro cytotoxicity analysis (Crystal Violet), OVCAR3; type: cell-based; conditions: Homo sapiens
Description: as §1
All ADCs were purified and characterized using SEC-HPLC for aggregation analysis, HIC-HPLC for DAR analysis, and cell-based assay with A431-A3 (MSLN^hi), A431 (MSLN^lo), and OVCAR3 (MSLN^hi) cell lines.

[2] = system: various cell lines (51 cell lines); assay: In vitro potency (IC50, Crystal Violet) in cell lines with varying mesothelin expression; type: cell-based
Description: Cytotoxicitly Cells were sub-cultured and seeded at 5,000 cells/well in complete growth medium in 96-well tissue culture plates, and incubated at 37° C., 5% CO2 overnight (16 hours). Test reagents were serially diluted 1:3 in 2 mL deep-well dilution plates, starting at 200 nM (10 dilutions total). Diluted samples (100 μL) were added to the cell plates (starting concentration of test samples at 100 nM). Plates were incubated at 37° C., 5% CO2 for an additional 5 days. Medium was then discarded, and plates were washed once with 200 μL DPBS, stained with 50 μL of 0.2% Crystal Violet solution at room temperature for 15 min, and then washed extensively with tap water. Plates were air-dried, and Crystal Violet was dissolved with 200 μL of 1% SDS solution. Plates were read at 570 nm. Data was analyzed for IC50 determination using GraphPad Prism 6. Correlation analysis was performed in GraphPad Prism using a non-parametric Spearman analysis.

MSLN-negative cell lines = assay: In vitro cytotoxicity (IC50, Crystal Violet) on MSLN-negative cell lines (Example 11); type: cell-based; conditions: for IC50: Homo sapiens, read-out: In vitro cell based potency, IC50
Description: Plates were incubated at 37° C. 5% CO2 for an additional 5 days. […] Plates were read at 570 nm.

human NSCLC PDX LXFA-737 = system: human NSCLC PDX LXFA-737
Description: Animals: Female NMRI nu/nu mice (Crl:NMRI-Foxn1nu), 4 to 6 weeks of age.
Experimental procedure: Animals were monitored until the tumor implants reached the study volume criteria of 50-250 mm^3 (e.g., 80-200 mm^3) in a sufficient number of animals. […] The day of randomization was designated as day 0.
as §2
Statistical analysis: Inhibition of Tumor Growth, Test/Control Value in % (Min. T/C): The test versus control value (T/C in %) was calculated from the ratio of the median residual tumor volume (RTV) values of test versus control groups on day X multiplied by 100. Tumor volume doubling and quadrupling time (Td, Tq) for test and control groups was defined as the time interval (in days) required for a group to reach a median RTV of 200% or 400%.

[3] = eribulin single dose of 0.1 mg/kg i.v.
[4] = eribulin single dose of 3.2 mg/kg i.v.

In the case of `C=C1C[C@@H]2CC[C@@]34C[C@H]5O[C@H]6[C@@H](O3)[C@H]3O[C@H](CC[C@@H]3O[C@H]6[C@H]5O4)CC(=O)C[C@@H]3[C@@H](OC)[C@@H](C[C@H](O)CN)O[C@H]3C[C@H]3O[C@@H](CC[C@@H]1O2)C[C@@H](C)C3=C` [Eribulin, eribulin, reference compound], the tolerability (human NSCLC PDX LC-F-25; [3]) is reported as “well tolerated”, the tumor growth inhibition (human NSCLC PDX LC-F-25; [3]) is reported as “did not induce statistically significant tumor growth inhibition” and the tolerability / bodyweight (human NSCLC PDX LC-F-25; eribulin single dose of 3.2 mg/kg (mouse MTD) i.v., from 3 to 10 days after administration) is reported as “slight and transient bodyweight loss”. The partial tumor regressions (human NSCLC PDX LC-F-25; [4]) was 6 out of 8, the tumor growth inhibition (human NSCLC PDX LC-F-25; [4]) was “statistically significant tumor growth inhibition” and the EC50 (H226 cells; NCI-H226, 120 h, Table 18, 5 days, read-out: Cell-Based Cytotoxicity Assay, EC50 (nM) H226) was 5.3 nM. The EC50 (H226 cells; NCI-H226, Table 19, payloads, read-out: Cell-Based Cytotoxicity Assay EC50 (nM) H226) was 5.3 nM, the anti-tumor effect ([1]; eribulin alone 0.1 mg/kg (equivalent molar amount as in MORAb-109)) was “limited anti-tumor effects” and the anti-tumor effect ([1]; eribulin alone at the MTD (3.2 mg/kg)) was “limited anti-tumor effects”. For the same compound, the “minimum T/C” value (human NSCLC PDX LXFA-586; eribulin single dose of 3.2 mg/kg i.v., on day 21) was 14.8%, the tolerability / bodyweight (human NSCLC PDX LXFA-586; mouse, in vivo, iv, 3.2 mg/kg) was “slight and transient bodyweight loss” and the EC50 (OVCAR3 cells; OVCAR-3, read-out: Cell based Cytotoxicity assay, EC50 (nM) OVCAR3-6 hr, treated with ADC for 6 hours then washed off) was 2.81 nM. The EC50 (OVCAR3 cells; OVCAR-3, read-out: Cell based Cytotoxicity assay, EC50 (nM) OVCAR3-72 hr, treated for 72 hours) was 0.25 nM, the IC50 ([2]; A431-K5 cells (MSLN MFI 1430.3)) was 1.5 nM and the IC50 ([2]; COV362, COV362 cells (MSLN MFI 113.5)) was 2.78 nM. For the same compound, the IC50 ([2]; HAC-2 cells (MSLN MFI 172.3)) was 26.6 nM, the IC50 ([2]; HEC-251, HEC-251 cells (MSLN MFI 53.3)) was 0.5 nM and the IC50 ([2]; HK-1, HK1 cells (MSLN MFI 39.2)) was 0.89 nM. For the same compound, the IC50 ([2]; HNE1, HNE-1 cells (MSLN MFI 110.8)) was 0.87 nM, the IC50 ([2]; HNE-1-T1 cells (MSLN MFI 79.3)) was 1.03 nM and the IC50 ([2]; Homo sapiens, A549, A549 cells (MSLN MFI 14.2)) was 2.72 nM. For the same compound, the IC50 ([2]; Homo sapiens, A-431, A431 cells (MSLN MFI 5.6)) was 0.55 nM, the IC50 ([2]; Homo sapiens, ASPC1, AsPC1 cells (MSLN MFI 33.47)) was 1.62 nM and the IC50 ([2]; Homo sapiens, BXPC-3, BxPC3 cells (MSLN MFI 15.59)) was 0.66 nM. It also gave an IC50 ([2]; Homo sapiens, CNE-2, CNE2 cells (MSLN MFI 147.7)) of 0.49 nM, an IC50 ([2]; Homo sapiens, Caov-3, CaOV-3 cells (MSLN MFI 137.6)) of 0.44 nM and an IC50 ([2]; Homo sapiens, Capan-2, Capan-2 cells (MSLN MFI 36)) of 1.21 nM. For the same compound, the IC50 ([2]; Homo sapiens, EGI-1, EGI-1 cells (MSLN MFI 14.8)) was 1.48 nM, the IC50 ([2]; Homo sapiens, HCC1806, HCC1806 cells (MSLN MFI 189.3)) was 0.37 nM and the IC50 ([2]; Homo sapiens, HEC-1-A, HEC-1-A cells (MSLN MFI 16.5)) was 0.68 nM. It also gave an IC50 ([2]; Homo sapiens, HEC-1B, HEC-1-B cells (MSLN MFI 16.9)) of 0.54 nM, an IC50 ([2]; Homo sapiens, HONE1, HONE1 cells (MSLN MFI 108.6)) of 0.89 nM and an IC50 ([2]; Homo sapiens, JIMT-1, JIMT-1 cells (MSLN MFI 36.4)) of 0.39 nM. It also gave an IC50 ([2]; Homo sapiens, Lu-65, Lu65 cells (MSLN MFI 13.13)) of 0.56 nM, an IC50 ([2]; Homo sapiens, MFE-280, MFE-280 cells (MSLN MFI 45.1)) of 3.24 nM and an IC50 ([2]; Homo sapiens, MKN-1, MKN1 cells (MSLN MFI 22.06)) of 0.96 nM. It also gave an IC50 ([2]; Homo sapiens, MKN-7, MKN7 cells (MSLN MFI 18.48)) of 0.58 nM, an IC50 ([2]; Homo sapiens, MKN-45, MKN45 cells (MSLN MFI 57.94)) of 3.65 nM and an IC50 ([2]; Homo sapiens, MKN-74, MKN74 cells (MSLN MFI 7.73)) of 0.78 nM. The IC50 ([2]; Homo sapiens, NCI-H23, NCI-H23 cells (MSLN MFI 4.42)) was 0.6 nM, the IC50 ([2]; Homo sapiens, NCI-H226, H226 cells (MSLN MFI 725.3)) was 0.66 nM and the IC50 ([2]; Homo sapiens, NCI-H292, NCI-H292 cells (MSLN MFI 108.6)) was 0.58 nM. The IC50 ([2]; Homo sapiens, NCI-H460, NCI-H460 cells (MSLN MFI 8.56)) was 35.3 nM, the IC50 ([2]; Homo sapiens, NCI-H1355, NCI-H1355 cells (MSLN MFI 11.5)) was 0.67 nM and the IC50 ([2]; Homo sapiens, NCI-H1650, NCI-H1650/MSLN cells (MSLN MFI 1865.5)) was 0.84 nM. The IC50 ([2]; Homo sapiens, NCI-H1650, NCI-H1650 cells (MSLN MFI 31.5)) was 0.61 nM, the IC50 ([2]; Homo sapiens, NCI-H2126, NCI-H2126 cells (MSLN MFI 73.6)) was 0.53 nM and the IC50 ([2]; Homo sapiens, NCI-N87, NCI-N87 cells (MSLN MFI 125.8)) was 0.11 nM. For the same compound, the IC50 ([2]; Homo sapiens, OVCAR-3, OVCAR3 A1 cells (MSLN MFI 220)) was 0.15 nM, the IC50 ([2]; Homo sapiens, PC-9, PC9 cells (MSLN MFI 11.24)) was 0.56 nM and the IC50 ([2]; Homo sapiens, SUNE1, SUNE1 cells (MSLN MFI 212.4)) was 0.56 nM. The IC50 ([2]; Homo sapiens, T47D, T-47D cells (MSLN MFI 4.4)) was 0.68 nM, the IC50 ([2]; Kuramochi cells (MSLN MFI 211.2)) was 0.89 nM and the IC50 ([2]; MOR/CPR cells (MSLN MFI 120.79)) was 3.69 nM. For the same compound, the IC50 ([2]; NCI-H322, NCI-H322 cells (MSLN MFI 83.9)) was 0.46 nM, the IC50 ([2]; NCI-H1355-Sorted cells (MSLN MFI 32.7)) was 0.7 nM and the IC50 ([2]; NCI-H1568, NCI-H1568/MSLN cells (MSLN MFI 4474)) was 0.44 nM. The IC50 ([2]; NCI-H2110, NCI-H2110 cells (MSLN MFI 112.2)) was 0.32 nM, the IC50 ([2]; SNU-216, SNU216 cells (MSLN MFI 94.91)) was 1.78 nM and the IC50 ([2]; SNU-245 cells (MSLN MFI 23.9)) was 78.2 nM. It also gave an IC50 ([2]; SNU-478 cells (MSLN MFI 53.8)) of 1.58 nM, an IC50 ([2]; SNU-1196 cells (MSLN MFI 40.2)) of 1.14 nM and an IC50 ([2]; TFK1 cells (MSLN MFI 132.81)) of 1.27 nM. The “% Max Killing” value (MSLN-negative cell lines; A431 cells (MSLN MFI 5.6)) was 93.04%, the “% Max Killing” value (MSLN-negative cell lines; BxPC3 cells (MSLN MFI 15.59)) was 97.28% and the IC50 (MSLN-negative cell lines; A-431, A431 cells (MSLN MFI 5.6)) was 0.18 nM. For the same compound, the IC50 (MSLN-negative cell lines; BXPC-3, BxPC3 cells (MSLN MFI 15.59)) was 0.13 nM, the IC50 (MSLN-negative cell lines; SK-OV-3, SKOV3 cells (MSLN MFI 20)) was 0.14 nM and the “% Max Killing” value (MSLN-negative cell lines; SKOV3 cells (MSLN MFI 20)) was 72.82%. The “minimum T/C” value (human NSCLC PDX LXFA-737; eribulin single dose of 0.2 mg/kg, on day 44) was 51.1%, the “Tq (tumor volume quadrupling time)” value (human NSCLC PDX LXFA-737; [4]) was 80.1% and the “minimum T/C” value (human NSCLC PDX LXFA-737; eribulin single dose of 3.2 mg/kg i.v., on day 27) was 4.2%. For the same compound, the tolerability / bodyweight (human NSCLC PDX LXFA-737; mouse, in vivo, iv, 3.2 mg/kg) was “slight and transient bodyweight loss”.
